From patent publication US20230146395A1, “Substituted Pyrimidines and Uses Thereof” (Verge Analytics, Inc., priority 2020, published 2023)
Structures can show the parent of a compound that is named as a salt.

Assays:
[1] = system: HEK 293T transfected with plasmids containing TDP-43 Q331K mutation; assay: HEK/TDP Survival assay (Cell-Titer-Glo, 48 hrs, maximal effect of rescue); assay type: cell-based; details: Homo sapiens, HEK 293T with TDP-43 Q331K, (n) in brackets
Procedure, shortened: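 Cells transfected with TDP-43 Q331K, treated 48 h at eight concentrations (6 replicates); ATP read by CellTiter-Glo luminescence versus untreated wells on each plate. Effect per dose as Hedge's g with Empirical Bayes false-sign-rate correction (signed log s >3 = hit); value is maximal rescue from the dose-response curve.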

PI3Kα = target: T1, PI3Kα (Homo sapiens, UniProt P42336); assay: Inhibition of PI3K isoforms: PI3Kα (microfluidic electrophoresis kinase assay, PIP2/PS substrate); assay type: biochemical; details: p110α/p85α, ATP 90 μM; read-out: PI3Ka IC50
T1 construct: Full-length N-terminal; FLAG (N); host or cells: SF9 cells (baculovirus)
T1 sequence (P42336 whole entry, canonical isoform): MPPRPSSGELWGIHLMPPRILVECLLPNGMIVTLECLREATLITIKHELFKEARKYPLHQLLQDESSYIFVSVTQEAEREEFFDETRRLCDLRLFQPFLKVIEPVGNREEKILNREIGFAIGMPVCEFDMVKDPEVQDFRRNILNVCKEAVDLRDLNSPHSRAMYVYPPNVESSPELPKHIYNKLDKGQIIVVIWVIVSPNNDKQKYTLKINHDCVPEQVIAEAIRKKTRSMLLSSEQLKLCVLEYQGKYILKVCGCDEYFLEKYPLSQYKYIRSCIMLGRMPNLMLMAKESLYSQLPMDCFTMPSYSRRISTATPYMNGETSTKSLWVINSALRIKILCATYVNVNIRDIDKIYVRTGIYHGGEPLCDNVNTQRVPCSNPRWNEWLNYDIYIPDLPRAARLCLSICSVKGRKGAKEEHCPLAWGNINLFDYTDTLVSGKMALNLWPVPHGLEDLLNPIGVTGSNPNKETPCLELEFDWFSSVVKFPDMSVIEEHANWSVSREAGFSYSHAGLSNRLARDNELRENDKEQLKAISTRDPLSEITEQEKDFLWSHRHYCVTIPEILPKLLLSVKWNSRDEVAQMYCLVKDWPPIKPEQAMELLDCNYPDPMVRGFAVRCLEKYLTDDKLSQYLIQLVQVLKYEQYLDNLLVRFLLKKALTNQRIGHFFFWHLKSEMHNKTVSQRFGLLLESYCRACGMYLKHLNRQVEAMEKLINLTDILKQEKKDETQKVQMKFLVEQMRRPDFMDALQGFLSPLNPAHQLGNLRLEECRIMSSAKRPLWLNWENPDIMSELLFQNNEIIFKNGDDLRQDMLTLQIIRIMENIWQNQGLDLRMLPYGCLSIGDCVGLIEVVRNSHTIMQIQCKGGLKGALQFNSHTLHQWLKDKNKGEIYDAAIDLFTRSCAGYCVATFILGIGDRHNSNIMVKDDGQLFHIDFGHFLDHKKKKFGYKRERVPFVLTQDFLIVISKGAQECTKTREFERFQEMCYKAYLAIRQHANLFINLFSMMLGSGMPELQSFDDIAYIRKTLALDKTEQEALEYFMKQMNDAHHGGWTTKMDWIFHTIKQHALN
T1 sequence (P27986 whole entry partner, canonical isoform): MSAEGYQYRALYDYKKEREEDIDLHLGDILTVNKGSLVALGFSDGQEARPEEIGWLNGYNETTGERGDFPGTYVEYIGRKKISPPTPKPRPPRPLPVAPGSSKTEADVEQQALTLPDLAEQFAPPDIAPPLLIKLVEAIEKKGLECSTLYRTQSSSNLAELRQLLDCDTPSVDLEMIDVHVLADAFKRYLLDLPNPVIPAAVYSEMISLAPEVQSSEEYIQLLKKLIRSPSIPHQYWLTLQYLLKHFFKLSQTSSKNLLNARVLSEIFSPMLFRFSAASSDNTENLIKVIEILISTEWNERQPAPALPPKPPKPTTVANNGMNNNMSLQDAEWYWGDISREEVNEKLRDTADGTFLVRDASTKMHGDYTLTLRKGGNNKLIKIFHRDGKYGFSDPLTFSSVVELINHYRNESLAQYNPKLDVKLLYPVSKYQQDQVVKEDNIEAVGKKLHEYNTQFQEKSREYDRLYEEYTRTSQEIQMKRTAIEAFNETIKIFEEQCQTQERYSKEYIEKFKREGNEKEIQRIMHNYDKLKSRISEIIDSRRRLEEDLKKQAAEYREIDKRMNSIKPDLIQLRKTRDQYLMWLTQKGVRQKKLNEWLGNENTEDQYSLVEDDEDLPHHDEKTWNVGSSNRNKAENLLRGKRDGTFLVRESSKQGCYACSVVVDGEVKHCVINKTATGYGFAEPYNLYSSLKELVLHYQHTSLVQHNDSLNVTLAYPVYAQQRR
Procedure: The kinase substrate was prepared by mixing and sonicating fluorescently-labeled phosphatidylinositol 4,5-phosphate (PIP2) with phospho-L-serine (PS) at 1:20 ratio in 50 mM HEPES buffer pH7.5.
The kinase reactions were assembled in 384-well plates (Greiner) in a total volume of […] as follows. The kinase proteins were pre-diluted in an assay buffer comprising 50 mM HEPES, pH 7.5, 0.012% CHAPS, 1 mM DTT, 10 mM Na3VaO4, 10 mM 3-GP, 3 mM MgCl2, and 40 mM NaCl2, and dispensed into a 384-well plate (10 μL per well). Test compounds were serially pre-diluted in DMSO and added to the protein samples by acoustic dispensing (Labcyte Echo). The concentration of DMSO was equalized to 1% in all samples. All test compounds were tested at 12 concentrations. The control samples (0%-inhibition in the absence of inhibitor, DMSO only) and 100%-inhibition (in the absence of enzyme) were assembled in replicates of four and were used to calculate %-inhibition in the presence of test compounds. The reactions were initiated by addition of 10 μL of the PIP2/PS substrate supplemented with ATP. The final concentration of enzymes was 0.5 nM (PI3Kα), 1 nM (PI3Kβ), 10 nM (PI3Kγ), and 0.25 nM (PI3Kδ). The final concentration of ATP was 90 μM (PI3Kα), 60 μM (PI3Kβ), 100 μM (PI3Kγ), and 90 μM (PI3Kδ). The final concentration of PIP2/PS substrate was 1 μM (PIP2). The kinase reactions were allowed to proceed for 3 h at room temperature. Following incubation, the reactions were quenched by addition of 50 μL of termination buffer (100 mM HEPES, pH 7.5, 0.01% Triton X-100, 20 mM EDTA). Terminated plates were analyzed on a microfluidic electrophoresis instrument (Caliper LabChip® 3000, Caliper Life Sciences/Perkin Elmer). The change in the relative fluorescence intensity of the PI(4,5)P substrate and PI(3,4,5)P product peaks was measured. The activity in each test sample was determined as the product to sum ratio (PSR): P/(S+P), where P is the peak height of the product, and S is the peak height of the substrate. Percent inhibition (Pinh) was determined using the following equation:
Pinh=(PSR0% inh−PSRcompound)/(PSR0% inh−PSR100% inh)*100
in which PSRcompound is the product/sum ratio in the presence of compound, PSR0% inh is the product/sum ratio in the absence of compound, and the PSR100% inh is the product/sum ratio in the absence of the enzyme.

IC50 (PI3Kα): 6.78 µM
SMILES: c1ccc(-c2cc(Nc3nc(N4CCOCC4)c4oc(-c5ccncc5)cc4n3)[nH]n2)cc1 [Compound 1, 4-morpholino-N-(3-phenyl-1H-pyrazol-5-yl)-6-(pyridin-4-yl)furo[3,2-d]pyrimidin-2-amine hydrochloride]
EC50 [1]: 14 nM
